The text below walks through data of patent US8980829B2, “Aryl glycoside compound, preparation method and use thereof” (Shanghai Yingli Science and Technology Co., Ltd, priority 2011, dated 2015).

Assay [1] has as its target human SGLT2 (Homo sapiens (Human), UniProt P31639). Put plainly: Uptake assay of [14C]-AMG in Flp-In CHO cells stably expressing human SGLT2.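 As to all read-outs here: uptake in Na+ containing KRH buffer with compounds added in 1% DMSO, radioactivity of lysed cells read by scintillation counting, SGLT1 tested the same way in matching Flp-In CHO cells.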 The assay is classed as cell-based. The note with it: for IC50: [14C]-AMG uptake, Flp-In CHO cells expressing human SGLT2, 1 hour at 37° C., n = 1-4; for Selectivity (SGLT1/SGLT2): ratio SGLT1 IC50 / SGLT2 IC50.
Assay [2] addresses human SGLT1 (Homo sapiens (Human), UniProt P13866). Put plainly: Uptake assay of [14C]-AMG in Flp-In CHO cells stably expressing human SGLT1.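 Also: uptake run in sodium-containing KRH buffer with compounds added in DMSO (1% final), cell radioactivity read by scintillation counting after lysis.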 The assay is classed as cell-based. As to conditions: [14C]-AMG uptake, Flp-In CHO cells expressing human SGLT1, 1 hour at 37° C., n = 1-4.
Assay [3] concerns C57 mice. Put plainly: Urinary glucose excretion test. The note with it: adult C57 mice, 10 mg/kg, 24-hours urine collection, average of 6 mice. The assay is classed as in vivo. On the procedure: Urinary Glucose Excretion Test
Adult C57 mice administered the test compound (10 mg/kg) were placed in metabolism cages for 24-hours urine collection, and measure the total volume of urine. When the urine samples had been collected, they were immediately frozen in a −20° C. refrigerator, followed by detecting the glucose concentration in urine. Finally, the total glucose in animal urine was calculated according to the total urine volume. It was then converted into urinary glucose excretion (mg) per 200 g of body weight within 24 hours according to the weight of mice.

Sequence of human SGLT1 (P13866 whole entry): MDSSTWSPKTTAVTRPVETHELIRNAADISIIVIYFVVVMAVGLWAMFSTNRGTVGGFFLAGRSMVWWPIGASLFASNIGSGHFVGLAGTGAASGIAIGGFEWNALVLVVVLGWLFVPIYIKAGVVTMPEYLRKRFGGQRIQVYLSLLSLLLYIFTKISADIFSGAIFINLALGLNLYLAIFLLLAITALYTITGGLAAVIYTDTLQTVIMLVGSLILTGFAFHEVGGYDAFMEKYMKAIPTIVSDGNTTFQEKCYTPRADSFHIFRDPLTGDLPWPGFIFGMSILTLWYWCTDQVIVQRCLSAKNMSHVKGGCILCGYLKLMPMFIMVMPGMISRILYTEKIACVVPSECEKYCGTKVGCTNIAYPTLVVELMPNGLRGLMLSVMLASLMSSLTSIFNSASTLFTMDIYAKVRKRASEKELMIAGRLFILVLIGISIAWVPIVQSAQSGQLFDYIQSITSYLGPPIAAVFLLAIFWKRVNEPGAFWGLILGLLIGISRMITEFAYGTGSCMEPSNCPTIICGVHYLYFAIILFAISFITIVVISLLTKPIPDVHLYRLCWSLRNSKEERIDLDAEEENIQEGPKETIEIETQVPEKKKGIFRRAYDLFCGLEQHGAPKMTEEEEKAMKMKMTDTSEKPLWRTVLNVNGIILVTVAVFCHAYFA
Sequence of human SGLT2 (P31639 whole entry): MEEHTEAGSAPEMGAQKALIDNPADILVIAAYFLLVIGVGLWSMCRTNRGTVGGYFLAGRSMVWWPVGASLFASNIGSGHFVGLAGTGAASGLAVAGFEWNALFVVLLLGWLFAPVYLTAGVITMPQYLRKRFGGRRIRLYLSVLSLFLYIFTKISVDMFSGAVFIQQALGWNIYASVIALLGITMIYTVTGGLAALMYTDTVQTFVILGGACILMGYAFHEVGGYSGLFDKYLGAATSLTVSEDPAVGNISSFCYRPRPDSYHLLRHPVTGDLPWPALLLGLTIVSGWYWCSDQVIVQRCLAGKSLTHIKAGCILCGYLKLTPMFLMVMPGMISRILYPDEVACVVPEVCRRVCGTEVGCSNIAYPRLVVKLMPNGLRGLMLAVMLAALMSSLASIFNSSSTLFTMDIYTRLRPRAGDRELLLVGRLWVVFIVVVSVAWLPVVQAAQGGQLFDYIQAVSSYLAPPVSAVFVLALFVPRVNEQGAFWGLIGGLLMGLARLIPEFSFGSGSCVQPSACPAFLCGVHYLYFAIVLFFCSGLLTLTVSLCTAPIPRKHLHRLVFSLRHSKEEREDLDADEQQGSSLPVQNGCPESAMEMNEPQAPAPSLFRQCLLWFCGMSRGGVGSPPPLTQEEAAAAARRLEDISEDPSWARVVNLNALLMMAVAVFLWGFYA

The IC50 is the midpoint of a concentration-inhibition curve. Regarding `OC[C@H]1O[C@@H](c2ccc(Cl)c(Cc3ccc(OCC4CCO4)cc3)c2)[C@H](O)[C@@H](O)[C@@H]1O` (single isomer, unassigned) [Compound 2], in assay [1], the IC50 stood at 8.7 nM and the “Selectivity (SGLT1/SGLT2)” value turned out to be 188. Besides, in assay [2], the midpoint of inhibition, the IC50, lay at 1640 nM.

In the case of `OC[C@H]1O[C@@H](c2ccc(Cl)c(Cc3ccc(OCC4CCO4)cc3)c2)[C@H](O)[C@@H](O)[C@@H]1O` (single isomer, unassigned) [Compound 3], in assay [1], it took 11.4 nM to reach half-maximal inhibition (IC50) and the “Selectivity (SGLT1/SGLT2)” value came to 201. Moreover, inhibition in assay [2] was half-maximal at 2290 nM (IC50).

In the case of `OC[C@H]1O[C@@H](c2ccc(Cl)c(Cc3ccc(OCC4CCO4)cc3)c2)[C@H](O)[C@@H](O)[C@@H]1O` (single isomer, unassigned) [Compound 4], the IC50 is 4.9 nM in assay [1] and 1450 nM in assay [2]. Also, the “Selectivity (SGLT1/SGLT2)” value in assay [1] is given as 295.

On to `OC[C@H]1O[C@@H](c2ccc(Cl)c(Cc3ccc(OCC4COC4)cc3)c2)[C@H](O)[C@@H](O)[C@@H]1O` [Compound 1], for which, in assay [1], the IC50 worked out at 5.6 nM and the “Selectivity (SGLT1/SGLT2)” value is listed as 471. Also, the “Urine Glucose Excretion (mg/200 g BW/24 h)” value (from here on “Urine Glucose Excretion”) in assay [3] is listed as 1333 mg/200 g BW/24 h. Also, the IC50 in assay [2] turned out to be 2640 nM.

In the case of `CC1(COc2ccc(Cc3cc([C@@H]4O[C@H](CO)[C@@H](O)[C@H](O)[C@H]4O)ccc3Cl)cc2)COC1` [Compound 5], the IC50 in assay [1] amounted to 8.3 nM; in assay [2], 792 nM. Also, in assay [1], the “Selectivity (SGLT1/SGLT2)” value is 95. The “Urine Glucose Excretion” value in assay [3] is reported as 1050 mg/200 g BW/24 h.

For the compound `OC[C@H]1O[C@@H](c2ccc(Cl)c(Cc3ccc(CC4COC4)cc3)c2)[C@H](O)[C@@H](O)[C@@H]1O` [Compound 6], in assay [1], inhibition was half-maximal at 9.6 nM (IC50) and the “Selectivity (SGLT1/SGLT2)” value is 312. Besides, the “Urine Glucose Excretion” value in assay [3] was determined as 735 mg/200 g BW/24 h. Inhibition in assay [2] was half-maximal at 3000 nM (IC50).

For `OC[C@H]1O[C@@H](c2ccc(Cl)c(Cc3ccc(CCC4COC4)cc3)c2)[C@H](O)[C@@H](O)[C@@H]1O` [Compound 7], in assay [1], the IC50 was determined as 8.5 nM and the “Selectivity (SGLT1/SGLT2)” value was 124. Further, the midpoint of inhibition in assay [2], the IC50, lay at 1060 nM.

As for `OC[C@H]1O[C@@H](c2ccc(Cl)c(Cc3ccc(OCCC4COC4)cc3)c2)[C@H](O)[C@@H](O)[C@@H]1O` [Compound 8], the results for the half-maximal inhibitory concentration (IC50) in assay [1] and in assay [2] were 1.7 nM and 930 nM, respectively. Also, the “Selectivity (SGLT1/SGLT2)” value in assay [1] worked out at 547.

Turning to `OC[C@H]1O[C@@H](c2ccc(Cl)c(Cc3ccc(OCCC4(F)COC4)cc3)c2)[C@H](O)[C@@H](O)[C@@H]1O` [Compound 9], the values for the IC50 in assay [1] and in assay [2] were 7.5 nM and 1190 nM, respectively. In addition, in assay [1], the “Selectivity (SGLT1/SGLT2)” value is given as 159. Moreover, the “Urine Glucose Excretion” value in assay [3] turned out to be 1079 mg/200 g BW/24 h.

For the compound `OC[C@H]1O[C@@H](c2ccc(Cl)c(Cc3ccc(OCCC4CSC4)cc3)c2)[C@H](O)[C@@H](O)[C@@H]1O` [Compound 10], in assay [1], inhibition was half-maximal at 7.4 nM (IC50) and the “Selectivity (SGLT1/SGLT2)” value is reported as 176. Besides, the “Urine Glucose Excretion” value in assay [3] is 740 mg/200 g BW/24 h. This compound gave an IC50 in assay [2] of 1300 nM.

For the compound `[O-][S+]1CC(CCOc2ccc(Cc3cc([C@@H]4O[C@H](CO)[C@@H](O)[C@H](O)[C@H]4O)ccc3Cl)cc2)C1` (some centres unmarked) [Compound 11], in assay [1], the IC50 was determined as 6.8 nM and the “Selectivity (SGLT1/SGLT2)” value was found to be 150. The compound also yielded an IC50 in assay [2] of 1020 nM.

Turning to `OC[C@H]1O[C@@H](c2ccc(Cl)c(Cc3ccc(OCC4(F)COC4)cc3)c2)[C@H](O)[C@@H](O)[C@@H]1O` [Compound 12], the figures for the IC50 in assay [1] and in assay [2] were 6.5 nM and 2080 nM, respectively. Further, in assay [1], the “Selectivity (SGLT1/SGLT2)” value is 320. Further, the “Urine Glucose Excretion” value in assay [3] was 1323 mg/200 g BW/24 h.

Take `CC(C)(C)OC(=O)N1CC(COc2ccc(Cc3cc([C@@H]4O[C@H](CO)[C@@H](O)[C@H](O)[C@H]4O)ccc3Cl)cc2)C1` [Compound 13]: in assay [1], the IC50 came out at 28.7 nM and the “Selectivity (SGLT1/SGLT2)” value is 96. In assay [2], this compound came in with an IC50 of 2760 nM.

Take `OC[C@H]1O[C@@H](c2ccc(Cl)c(Cc3ccc(OCC4CNC4)cc3)c2)[C@H](O)[C@@H](O)[C@@H]1O` [Compound 14]: in assay [1], the IC50 amounted to 8.4 nM and the “Selectivity (SGLT1/SGLT2)” value was 93. Besides, the IC50 in assay [2] was determined as 785 nM.

Regarding `CN1CC(COc2ccc(Cc3cc([C@@H]4O[C@H](CO)[C@@H](O)[C@H](O)[C@H]4O)ccc3Cl)cc2)C1` [Compound 15], in assay [1], half-maximal inhibition (IC50) was put at 23.6 nM and the “Selectivity (SGLT1/SGLT2)” value is on record as 62. Besides, the IC50 in assay [2] is 1460 nM.

On to `OC[C@H]1O[C@@H](c2ccc(Cl)c(Cc3ccc(CC4(F)COC4)cc3)c2)[C@H](O)[C@@H](O)[C@@H]1O` [Compound 16], for which, in assay [1], the IC50 came to 8.1 nM and the “Selectivity (SGLT1/SGLT2)” value is 306. Further, in assay [3], the “Urine Glucose Excretion” value came to 1441 mg/200 g BW/24 h. In assay [2], this compound returned an IC50 of 2480 nM.

For `CC(=O)N1CC(COc2ccc(Cc3cc([C@@H]4O[C@H](CO)[C@@H](O)[C@H](O)[C@H]4O)ccc3Cl)cc2)C1` [Compound 17], the IC50 in assay [1] was 6.4 nM; in assay [2], 469 nM. Moreover, in assay [1], the “Selectivity (SGLT1/SGLT2)” value is given as 73. Besides, the “Urine Glucose Excretion” value in assay [3] was 180 mg/200 g BW/24 h.

Take `OC[C@H]1O[C@@H](c2ccc(Cl)c(Cc3ccc(OCC4CN(C5COC5)C4)cc3)c2)[C@H](O)[C@@H](O)[C@@H]1O` [Compound 18]: the IC50 in assay [1] was 22 nM; in assay [2], 2450 nM. In addition, the “Selectivity (SGLT1/SGLT2)” value in assay [1] stood at 111.

In the case of `OC[C@H]1O[C@@H](c2ccc(Cl)c(Cc3ccc(OCC4CN(c5ccc(F)cc5)C4)cc3)c2)[C@H](O)[C@@H](O)[C@@H]1O` [Compound 19], the IC50 is 97.2 nM in assay [1] and 1990 nM in assay [2]. The “Selectivity (SGLT1/SGLT2)” value in assay [1] is reported as 21.

Consider `OC[C@H]1O[C@@H](c2ccc(Cl)c(Cc3ccc(OCC4(CF)COC4)cc3)c2)[C@H](O)[C@@H](O)[C@@H]1O` [Compound 20], for which, in assay [1], the midpoint of inhibition, the IC50, lay at 3.7 nM and the “Selectivity (SGLT1/SGLT2)” value stood at 690. For the same compound, in assay [3], the “Urine Glucose Excretion” value was 751 mg/200 g BW/24 h. The compound further registered an IC50 in assay [2] of 2550 nM.

For the compound `OC[C@H]1O[C@@H](c2ccc(Cl)c(Cc3ccc(OCCCC4COC4)cc3)c2)[C@H](O)[C@@H](O)[C@@H]1O` [Compound 22], in assay [1], the half-maximal inhibitory concentration (IC50) was 1.7 nM and the “Selectivity (SGLT1/SGLT2)” value was found to be 2911. For the same compound, the IC50 in assay [2] worked out at 4950 nM.

For the compound `OC[C@H]1O[C@@H](c2ccc(Cl)c(Cc3ccc(OCCCC4(F)COC4)cc3)c2)[C@H](O)[C@@H](O)[C@@H]1O` [Compound 23], in assay [1], the IC50 is 1.1 nM and the “Selectivity (SGLT1/SGLT2)” value was 1089. For the same compound, the “Urine Glucose Excretion” value in assay [3] was found to be 1198 mg/200 g BW/24 h. The IC50 in assay [2] came to 1200 nM.

On to `CCOc1ccc(Cc2cc([C@@H]3O[C@H](CO)[C@@H](O)[C@H](O)[C@H]3O)c(OCC3(F)COC3)cc2Cl)cc1` [Compound 24], for which, in assay [1], the IC50 is 12 nM and the “Selectivity (SGLT1/SGLT2)” value was determined as 1424. The compound also returned an IC50 in assay [2] of 17100 nM.

With `CCOc1ccc(Cc2cc([C@@H]3O[C@H](CO)[C@@H](O)[C@H](O)[C@H]3O)c(OCCCC3(F)COC3)cc2Cl)cc1` [Compound 25], in assay [1], half-maximal inhibition (IC50) was put at 12.3 nM and the “Selectivity (SGLT1/SGLT2)” value is reported as 1559. The compound further came in with an IC50 in assay [2] of 18800 nM.

With `CCOc1ccc(Cc2cc([C@@H]3O[C@H](CO)[C@@H](O)[C@H](O)[C@H]3O)c(OCC3CNC3)cc2Cl)cc1` [Compound 26], in assay [1], the IC50 came to 69.4 nM and the “Selectivity (SGLT1/SGLT2)” value is reported as 28. This compound also displayed an IC50 in assay [2] of 1950 nM.

On to `OC[C@H]1O[C@@H](c2ccc(Cl)c(Cc3ccc(OC4CCOC4)cc3)c2)[C@H](O)[C@@H](O)[C@@H]1O` (some centres unmarked) [EMPAGLIFLOZIN, reference compound], for which, in assay [3], the “Urine Glucose Excretion” value amounted to 1197 mg/200 g BW/24 h.
